Source: patent US20240115546A1, “AGENT FOR PREVENTING OR AMELIORATING PRURITUS” (KAO CORPORATION, priority 2021, published 2024)

Assays:
[1] = test system: AEW model mice (C57BL/6J); experiment: Scratching behavior in AEW model mice given C3a receptor antagonist; type: in vivo, mouse; conditions: 200 μL subcutaneous, Compound 1 0.5 mg/mL, Compound 2 0.05 mg/mL, once daily for 8 days; measured for 3 hours after last administration; vs solvent alone; FIG. 8
Source text: The animals used were male C57BL/6J mice.
Preparation of AEW model: The back of the neck was shaved, and absorbent cotton soaked with a 1:1 (v/v) mixture of acetone and diethyl ether was applied and allowed to stand for 15 seconds. Immediately thereafter, absorbent cotton soaked with water was applied for 30 seconds. This treatment was repeated twice/day (morning and evening) for 7 days.
(§1) Compound 1 or Compound 2, whose C3a receptor antagonism was confirmed in Example 4 above, was used as a C3a receptor antagonist. Compound 1 or Compound 2 was dissolved in saline containing 20% polyethylene glycol 400, of which 200 μL was administered subcutaneously to the back of the neck. The control group was administered with the same amount of only the above solvent. The concentration of the C3a receptor antagonist solution was set at 0.5 mg/mL for Compound 1 and 0.05 mg/mL for Compound 2. Sample administration started after the first AEW treatment and was performed at a frequency of once daily for 8 days.
Sixteen hours after the last AEW treatment, the scratching behavior was measured for 3 hours after the last administration of the sample. MicroAct (Neuroscience) was used to measure the scratching behavior.

C3a receptor = target: T1, C3a receptor (Homo sapiens, UniProt Q16581); experiment: Ca2+-flux assay for C3a receptor antagonism in transfected HEK293 cells; type: cell-based; conditions: antagonist 10 nM, mouse TLQP-21 1 μM; HEK293 transfected with C3a receptor and GNA16; Fluo-4; vs control; FIG. 6
T1 sequence (Q16581 1-482): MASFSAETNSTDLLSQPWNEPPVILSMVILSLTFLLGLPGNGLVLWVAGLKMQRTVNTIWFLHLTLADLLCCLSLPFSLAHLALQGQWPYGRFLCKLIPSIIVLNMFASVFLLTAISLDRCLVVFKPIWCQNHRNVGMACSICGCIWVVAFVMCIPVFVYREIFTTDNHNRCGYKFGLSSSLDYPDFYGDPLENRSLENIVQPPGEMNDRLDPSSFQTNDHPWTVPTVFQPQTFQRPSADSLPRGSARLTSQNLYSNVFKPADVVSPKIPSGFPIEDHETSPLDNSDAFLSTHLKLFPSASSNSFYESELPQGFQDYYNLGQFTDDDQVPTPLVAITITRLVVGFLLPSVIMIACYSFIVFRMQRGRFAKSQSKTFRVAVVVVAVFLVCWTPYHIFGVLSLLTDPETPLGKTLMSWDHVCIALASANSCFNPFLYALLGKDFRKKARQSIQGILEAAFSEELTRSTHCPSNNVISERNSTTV
Description: In the following evaluation, Compound 1 and Compound 2 were dissolved in DMSO and diluted with HBSS as appropriate.
Human Embryonic Kidney cells 293 (HEK293) were used, transfected with the expression vectors necessary for evaluation according to the following.
A transfection solution was prepared by sequentially adding C3a receptor expression vector, GNA16 expression vector, and PEI-MAX (PolyScience) solution to serum-free DMEM medium, mixing well, and then allowing it to stand at room temperature for 20 minutes. […]
The cells for evaluating C3a receptor response described above were seeded in a 96-well Black Polystyrene Microplate (Thermo fisher scientific) precoated with Poly-L-Ornithine Solution (FUJIFILM Wako Pure Chemical). […] After 15 minutes, a mouse TLQP-21 solution was added for C3a receptor stimulation, and the Ca^2+ influx associated with the stimulation was measured over time as intracellular fluorescence intensity (Ex: 494 nm, Em: 525 nm). The value obtained by subtracting the measured value when HBSS was added instead of mouse TLQP-21 solution (blank) was used as the measured value. The C3a receptor antagonist solution and mouse TLQP-21 solution were added after adjusting their concentrations by appropriately diluting them so that their final concentrations when measuring fluorescence intensity were 10 nM and 1 μM, respectively. […]

[2] = test system: AD model mice (NC/Nga, mite allergen-induced); experiment: Scratching behavior in AD model mice given C3a receptor antagonist; type: in vivo, mouse; conditions: 200 μL subcutaneous, Compound 1 0.5 mg/mL, Compound 2 0.05 mg/mL, three times a week; measured for 3 hours after last administration; vs solvent alone; FIG. 7
Description: Seven-week-old female NC/Nga mice were used.
Preparation of AD model mice: The back of the neck was shaved, and 100 mg of an ointment containing mite allergen: Biostir AD (Biostir Inc.) was applied to the back of the neck and auricular region under isoflurane anesthesia for initial sensitization. Four days after the first application of the ointment containing mite allergen, 150 μL of 4% (w/v) SDS solution and 100 mg of ointment containing mite allergen were applied to the back of the neck and auricular region under isoflurane anesthesia. Thereafter, the same procedure was performed four times at a frequency of once every 3 to 4 days to induce AD-like dermatitis.
as §1, with “Sample administration started after the first AEW treatment and was performed at a frequency of once daily for 8 days.” left out
Four days after the last application of the ointment containing mite allergen, the scratching behavior was measured for 3 hours after the last administration of the sample. […]

SMILES | Scratching behavior [1] | Fluorescence intensity due to C3a receptor stimulation by TLQP-21 (Ca2+ influx, integrated over 3 min) (C3a receptor) | Scratching behavior [2]
N=C(N)NCCC[C@H](NC(=O)c1ccc(C(c2ccccc2)c2ccccc2)s1)C(=O)O [Compound 1, L-arginine, N2-[[5-(diphenylmethyl)-2-thienyl]carbonyl]] | significant decrease | greatly suppressed | significant decrease
Cc1cc(C(c2ccc(Cl)cc2)c2ccc(Cl)cc2)sc1C(=O)N[C@@H](CCCNC(=N)N)C(=O)O [Compound 2, L-arginine, N2-[[5-[bis(4-chlorophenyl)methyl]-3-methyl-2-thienyl]carbonyl]] | significant decrease | greatly suppressed | significant decrease
